Where a name gives a salt, the structure may show the parent alone.
Key:
human spermatozoa [1] = test: change in acrosome-reacted (PNA+) sperm vs DMSO, no agonist (capacitating); higher = more of the measured sperm population than DMSO, for viability, fewer PI-positive (dead) cells than DMSO; conditions: incubation time: 3h
HeLa [2] = test: HeLa toxicity: nuclei-count effect normalised to DMSO (DMSO = 0); higher = more features changed / larger toxic effect; conditions: incubation time: 24h incubation
human spermatozoa [3] = test: viability fold change, 1 - (PI-positive fraction / DMSO median); higher = more of the measured sperm population than DMSO, for viability, fewer PI-positive (dead) cells than DMSO; conditions: incubation time: 3h, non-capacitating
human spermatozoa [4] = test: hyperactivated motile sperm, percent change vs DMSO (capacitating); higher = more of the measured sperm population than DMSO, for viability, fewer PI-positive (dead) cells than DMSO; conditions: incubation time: 30min incubation
HeLa [5] = test: Cell Painting percent induction (share of features beyond 2 z-scores vs DMSO); higher = more features changed / larger toxic effect; extreme values may be limits of the assay; conditions: incubation time: 24h incubation
human spermatozoa [6] = test: progressively motile sperm, percent change vs DMSO (capacitating); higher = more of the measured sperm population than DMSO, for viability, fewer PI-positive (dead) cells than DMSO; conditions: incubation time: 30min incubation
HepG2 = HepG2 toxicity (resazurin), effect normalised to DMSO (DMSO = 0); higher = more features changed / larger toxic effect; conditions: incubation time: 70h incubation
human spermatozoa [7] = test: progressively motile sperm, percent change vs DMSO (non-capacitating); higher = more of the measured sperm population than DMSO, for viability, fewer PI-positive (dead) cells than DMSO; extreme values may be limits of the assay
human spermatozoa [8] = test: total motile sperm, percent change vs DMSO (non-capacitating); higher = more of the measured sperm population than DMSO, for viability, fewer PI-positive (dead) cells than DMSO
human spermatozoa [9] = test: acrosome-reacted (PNA+) sperm after agonist cocktail, percent change vs DMSO (capacitating); higher = more of the measured sperm population than DMSO, for viability, fewer PI-positive (dead) cells than DMSO; conditions: incubation time: 3h, capacitating + agonist cocktail 1h
[10] = incubation time: 10min incubation, 9.99 µM
[11] = incubation time: 10min incubation, 29.9 µM
[12] = incubation time: 3h incubation, 9.99 µM
[13] = incubation time: 3h incubation, 29.9 µM
[14] = incubation time: 6h incubation, 9.99 µM
[15] = incubation time: 6h incubation, 29.9 µM
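Throughout, for progressively motile sperm, percent change vs DMSO (non-capacitating): pooled live human sperm from at least 3 donors, tracked by automated microscopy in 0.5 s time-lapse movies, compounds at 10 and 30 µM, versus median of 16 DMSO wells per plate.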
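Throughout, for total motile sperm, percent change vs DMSO (non-capacitating): sperm pooled from at least 3 donors, tracked in 0.5 s time-lapse movies by automated microscopy after 10 min, 3 h or 6 h with compound at 10 or 30 µM.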

Compound	change in acrosome-reacted (human spermatozoa [1]; 9.99 µM)	change in acrosome-reacted (human spermatozoa [1]; 29.9 µM)	HeLa toxicity: nuclei-count effect normalised (HeLa [2]; 9.99 µM)	HeLa toxicity: nuclei-count effect normalised (HeLa [2]; 29.9 µM)	viability fold change (human spermatozoa [3]; 9.99 µM)	viability fold change (human spermatozoa [3]; 29.9 µM)	hyperactivated motile sperm (human spermatozoa [4]; 9.99 µM)	hyperactivated motile sperm (human spermatozoa [4]; 29.9 µM)	Cell Painting percent induction (HeLa [5]; 9.99 µM)	Cell Painting percent induction (HeLa [5]; 29.9 µM)	progressively motile sperm (human spermatozoa [6]; 9.99 µM)	progressively motile sperm (human spermatozoa [6]; 29.9 µM)	HepG2 toxicity (HepG2; 10 µM)	HepG2 toxicity (HepG2; 30 µM)	progressively motile sperm (human spermatozoa [7]; [10])	progressively motile sperm (human spermatozoa [7]; [11])	progressively motile sperm (human spermatozoa [7]; [12])	progressively motile sperm (human spermatozoa [7]; [13])	progressively motile sperm (human spermatozoa [7]; [14])	progressively motile sperm (human spermatozoa [7]; [15])	total motile sperm (human spermatozoa [8]; [10])	total motile sperm (human spermatozoa [8]; [11])	total motile sperm (human spermatozoa [8]; [12])	total motile sperm (human spermatozoa [8]; [13])	total motile sperm (human spermatozoa [8]; [14])	total motile sperm (human spermatozoa [8]; [15])	acrosome-reacted (human spermatozoa [9]; 9.99 µM)	acrosome-reacted (human spermatozoa [9]; 29.9 µM)
COCC(=O)O[C@]1(CCN(C)CCCc2nc3ccccc3[nH]2)CCc2cc(F)ccc2[C@@H]1C(C)C [Mibefradil]	0.323%	1.49%	35.6%	97.9%	-1.48	-2.28	-13.7%	-48.1%	5.66%	43.7%	3.94%	6.24%	14%	103%	1.95%	0.528%	16.4%	25.7%	27.4%	23.4%	-1.6%	0.488%	-3.96%	-8.13%	-7.2%	-14.3%	18.3%	38.1%
CCCCN1C[C@@H](O)[C@H](O)[C@H](O)[C@@H]1CO [Miglustat]	-0.0821%	-0.0793%	0.0668%	-3.87%	-0.2	0.248	12.2%	2.46%	0%	0%	5.12%	9.04%	5.75%	-4.38%	-0.816%	3.26%	9.63%	8.04%	8.15%	7.52%	-1.47%	0.804%	-1.56%	-0.192%	-5.48%	-3.6%	-0.571%	-6.96%
CC(C)[C@H]1c2ccc(F)cc2CC[C@@]1(CCN(C)CCCc1nc2ccccc2[nH]1)OC(=O)C1CC1 [NNC 55-0396 dihydrochloride]	4.14%	29.2%	97.3%	95.5%	-1.31	-2.3	-62%	-82.2%	27.1%	14.2%	4.2%	-98.6%	102%	103%	5.26%	-62.2%	16.3%	-100%	7.86%	-100%	0.104%	-33.4%	-15%	-93.6%	-24.8%	-93%	52.4%	51.1%
Nc1ncnc2c1c(-c1cccc(OCc3ccccc3)c1)cn2[C@H]1C[C@@H](CN2CCC2)C1 [NVP-AEW541]	0.03%	0.662%	27.7%	99.5%	-0.326	-0.581	16.7%	-13.9%	8.93%	57.6%	1.09%	5.49%	82.9%	103%	6.28%	11.5%	31.9%	34.1%	48.5%	31.5%	-0.708%	-2.42%	2.29%	-8.07%	-0.444%	-10.1%	10.6%	31.6%
N=C(N)Nc1ccc(C(=O)Oc2ccc3cc(C(=N)N)ccc3c2)cc1 [Nafamostat]	0.86%	1.56%	2.4%	1.27%	-0.884	-0.901	5.36%	1.98%	0%	0%	3.69%	9.5%	-7.68%	4.06%	-2.19%	0.269%	-19.4%	-27.7%	-23.3%	-29.6%	-0.692%	2.17%	-4.33%	-1.82%	-5.56%	-0.0709%	5.51%	15.9%
O=C(Nc1ccc([N+](=O)[O-])cc1Cl)c1cc(Cl)ccc1O [Niclosamide]	1.03%	1.07%	31.1%	32.3%	0.501	0.431	-59.6%	-70.1%	8.47%	7.82%	-1.8%	-5.95%	-3.07%	1.35%	-28.1%	-27.6%	-26.2%	-30.1%	-18.2%	-26.8%	-2.96%	-1.25%	-8.32%	-3.27%	-6.27%	-2.49%	7.25%	4.65%
O=C(O)c1cccnc1Nc1cccc(C(F)(F)F)c1 [Niflumic acid]	0.714%	0.944%	2.94%	-2.27%	-1.06	-0.652	19.3%	-6.47%	0%	0%	5.54%	7.87%	4.41%	-6.15%	9.44%	5.93%	-5.45%	4.68%	7.86%	-5.16%	2.12%	1.32%	-5.94%	-1.61%	-3.08%	-6.87%	4.85%	-0.457%
COC(=O)[C@]1(C)CC[C@]2(C)CC[C@]3(C)C4=CC=C5C(=CC(=O)C(O)=C5C)[C@]4(C)CC[C@@]3(C)[C@@H]2C1 [Pristimerin]	3.63%	6.18%	98.7%	98.7%	-0.933	-1.2	-72.5%	-73.6%	46.9%	38.9%	-74.5%	-96.6%	103%	103%	-86.8%	-99.9%	-100%	-100%	-100%	-99.9%	-50.2%	-83.1%	-90.8%	-88.7%	-92.1%	-85.4%	-52.1%	-57.5%

From the supplement of paper PMC10878532, “Sperm Toolbox—A selection of small molecules to study human spermatozoa” (PLOS ONE, 2024)
